We go through three molecules from paper PMC7154053, “Chemical, Metabolic, and Cellular Characterization of a FtsZ Inhibitor Effective Against Burkholderia cenocepacia” (Frontiers in Microbiology, 2020).

The subject of data set [1] is B. cenocepacia FCF19. The data set is described as follows: MIC, 2-fold microdilution, resazurin method. Format: cell-based, Burkholderia cenocepacia. As to conditions: Burkholderia cenocepacia; clinical isolate FCF19. As for the experimental part:
(§1) Burkholderia cenocepacia strains, Escherichia coli ATCC 25922, Pseudomonas aeruginosa PAO1, and Staphylococcus aureus ATCC 25923 were grown in Luria-Bertani (LB) medium (Difco), if not differently specified, with shaking at 200 rpm, or on LB agar, at 37°C.
(§2) The microtiter plates were incubated at 37°C for 48 (for B. cenocepacia) or 24 h (for all the other strains) and growth was determined by the resazurin method (Martin et al., [2006]). A solution of resazurin sodium salt (Sigma Aldrich) was prepared at 0.01% in distilled water and filter-sterilized. Thirty microliter of resazurin solution were added to each well after 1 or 2 days of incubation at 37°C, and the microtiters were re-incubated at the same temperature for 4 h. The MIC was defined as the lowest concentration of the drug that prevented a change in color from blue to pink, which indicates bacterial growth.
(§3) Three independent biological replicates were used for each MIC determination.

The subject of data set [2] is B. cenocepacia FCF22. In words: MIC, 2-fold microdilution, resazurin method. As to conditions: Burkholderia cenocepacia; clinical isolate FCF22. Format: cell-based, Burkholderia cenocepacia. As for the experimental part: as §1, §2, §3
The test system of the next data set is B. cenocepacia J2315. The data set is described as follows: MIC, 2-fold microdilution, resazurin method. Type of data set: cell-based, Burkholderia cenocepacia. As to conditions: for MIC: Burkholderia cenocepacia, J2315; for activity compared with C109, in words: SAR statements, against both bacteria and the purified enzyme. As for the experimental part:
as §1, §2, §3

A further data set concerns E. coli ATCC 25922. The data set is described as follows: MIC, 2-fold microdilution, resazurin method. Type of data set: cell-based. As to conditions: Escherichia coli, ATCC25922. As for the experimental part:
as §1, §2, §3

Another data set relates to P. aeruginosa PAO1. The data set is described as follows: MIC, 2-fold microdilution, resazurin method. Format: cell-based. The conditions noted are these: Pseudomonas aeruginosa, PAO1. As to the method:
as §1, §2, §3

The subject of the next data set is S. aureus ATCC 25923. The data set is described as follows: MIC, 2-fold microdilution, resazurin method. Type of data set: cell-based, Staphylococcus aureus. As to conditions: Staphylococcus aureus, ATCC25923. As for the experimental part:
as §1, §2, §3

In data set [3] the target is Burkholderia cenocepacia purified FtsZ protein (Burkholderia cenocepacia, UniProt B4E5Y7). In words: biochemical. As to conditions: for Inhibition of Bc FtsZ At 100 μM: 100 μM compound; for Inhibition of Bc FtsZ At 100 μM / Inhibits B. cenocepacia FtsZ GTPase at 100µM?: Yes/No; for Inhibits B. cenocepacia FtsZ GTPase at 100µM?: Supplementary Table 1. Type of data set: biochemical. As for the experimental part:
All the recombinant FtsZ proteins were expressed at 20°C overnight in E. coli BL21(DE3) cells, upon induction with 0.5 mM IPTG, and purified using the same protocol assessed for the wild-type B. cenocepacia FtsZ (Hogan et al., [2018]).
GTPase enzyme activity was determined using a pyruvate kinase/L-lactic dehydrogenase (PK/LDH) spectrophotometric coupled assay (Ingerman and Nunnari, [2005]). The assays were performed at 30°C, in a reaction mixture containing […] Hepes pH 7.5, 5 mM MgCl2, 5 mM KCl, 10 U PK/LDH, 0.25 mM NADH, 0.25 mM PEP, and 5–10 μM FtsZ, and initiated by the addition of 0.5 mM GTP. Alternatively, GTPase activity was determined by measuring the release of phosphate using the malachite green assay (Baykov et al., [1988]).
(1) A[I]=A[0]×(1-[I]/[I]+IC50)
where A[I] is the enzyme activity at inhibitor concentration [I] and A[0] is the enzyme activity without inhibitor.

Another data set has as its system P. aeruginosa. In words: Checkerboard assay with efflux pump inhibitor PaβN MC-207.110. Type of data set: cell-based, Pseudomonas aeruginosa. The conditions noted are these: Pseudomonas aeruginosa; read-out: MIC in the presence of MC-207.110, P. aeruginosa. As to the method: as §2, with “growth. […] Three independent biological replicates were used for each MIC determination.” for “growth.”

The subject of data set [4] is B. cenocepacia FCF19. The description is as above. Type of data set: cell-based, Burkholderia cenocepacia. The conditions noted are these: checkerboard, MC-207.110 0–128 μg/ml; C109 value at 128 μg/ml. As for the experimental part: as §2, with “growth. […] Three independent biological replicates were used for each MIC determination.” for “growth.”
In data set [5] the test system is B. cenocepacia FCF22. Described as above. Type of data set: cell-based, Burkholderia cenocepacia. As to conditions: checkerboard, MC-207.110 0–128 μg/ml; C109 value at 128 μg/ml. As for the experimental part: as §2, with “growth. […] Three independent biological replicates were used for each MIC determination.” for “growth.”
Data set [6] relates to CF bronchial epithelial (CFBE41o-) cell line. The data set is described as follows: Toxicity by MTT assay. Type of data set: cell-based. As to conditions: CFBE41o- cells, data not shown.
Data set [7] concerns the target T1, B. cenocepacia nitroreductase BCAL0539 (BcNR) (Burkholderia cenocepacia, UniProt B4E8I2).
T1 sequence (B4E8I2 1-242): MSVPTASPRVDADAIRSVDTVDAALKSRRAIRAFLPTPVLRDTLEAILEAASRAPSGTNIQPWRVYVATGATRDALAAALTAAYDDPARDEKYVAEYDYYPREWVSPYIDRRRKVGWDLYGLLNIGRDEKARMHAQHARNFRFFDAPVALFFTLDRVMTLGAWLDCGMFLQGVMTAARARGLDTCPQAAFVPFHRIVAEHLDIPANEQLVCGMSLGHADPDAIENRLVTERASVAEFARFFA
The data set is described as follows: BcNR nitroreductase steady-state kinetics (NADPH decrease at 340 nm). As to conditions: compound as substrate of BcNR. Format: biochemical. As for the experimental part: The reaction mixture typically contained 50 mM potassium phosphate pH 8.0, 50 mM KCl, 5–10 μM BcNR, and reactions were started by adding the substrate. Steady-state kinetics parameters were determined by assaying the enzyme at variable concentrations of substrate (10–500 μM). The experiments were performed in triplicate, and the kinetic constants Km and kcat determined by fitting the data to the Michaelis-Menten equation using Origin 8 software.

Another data set relates to B. cenocepacia. The data set is described as follows: Resazurin-based assay of BcNR reaction mixtures. Format: cell-based, Burkholderia cenocepacia. As to conditions: BcNR reactions with 1 mM C109, with or without NADPH; C109 result: in the absence of NADPH. The text has this: To assess whether the resulting BcNR reduction product could inhibit B. cenocepacia growth, we carried out a resazurin-based assay.

Where [8] appears, read: LB, 48 h, read-out: MIC B. cenocepacia J2315.
Setting [9] is: Supplementary Table 1, read-out: MIC (µg/ml) B. cenocepacia J2315.
Setting [10] is: LB, 24 h, read-out: MIC E. coli 25922.
The mark [11] stands for this setting: Supplementary Table 1, read-out: MIC (µg/ml) E. coli 25922.
Where [12] appears, read: LB, 24 h, read-out: MIC S. aureus 25923.
[13] abbreviates: Supplementary Table 1, read-out: MIC (µg/ml) S. aureus 25923.

Molecules are shown by their SMILES. In brackets after ≈: the same amount, converted by molar mass. Where two headings read alike, the source gives them in different places.

Sequence of Burkholderia cenocepacia purified FtsZ protein (B4E5Y7 entry or part of it): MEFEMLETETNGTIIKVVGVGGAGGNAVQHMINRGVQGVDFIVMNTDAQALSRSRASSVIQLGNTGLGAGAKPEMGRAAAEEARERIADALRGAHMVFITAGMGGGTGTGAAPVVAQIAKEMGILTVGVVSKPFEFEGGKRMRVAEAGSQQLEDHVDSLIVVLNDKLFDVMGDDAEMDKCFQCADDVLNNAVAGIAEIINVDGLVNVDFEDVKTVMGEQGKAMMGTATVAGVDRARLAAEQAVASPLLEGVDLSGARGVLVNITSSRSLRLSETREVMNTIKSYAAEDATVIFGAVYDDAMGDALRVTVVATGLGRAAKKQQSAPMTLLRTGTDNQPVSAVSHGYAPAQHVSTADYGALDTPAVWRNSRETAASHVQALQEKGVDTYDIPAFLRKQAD

`CCOC(=O)CSc1ccc2nsnc2c1[N+](=O)[O-]` [compound 11426142]: the melting point was 172 to 174 °C. Also, the MIC against B. cenocepacia FCF19 [1] came out at 32 µg/mL (≈ 107 µM). In the data set on B. cenocepacia FCF22 [2], this molecule had an MIC of 32 µg/mL (≈ 107 µM). Further, the MIC in the data set with B. cenocepacia J2315 (setting [8]) stood at 32 µg/mL (≈ 107 µM). Also, the MIC in the data set with B. cenocepacia J2315 (setting [9]) turned out to be 32 µg/mL (≈ 107 µM). For the same molecule, the “activity compared with C109, in words” value in the data set on B. cenocepacia J2315 was “partially lost activity”. In addition, the MIC in the data set on E. coli ATCC 25922 (setting [10]) turned out to be 8 µg/mL (≈ 26.7 µM). For the same molecule, the MIC in the data set with E. coli ATCC 25922 (setting [11]) came out at 8 µg/mL (≈ 26.7 µM). Further, in the data set on P. aeruginosa PAO1 (LB, 24 h, read-out: MIC P. aeruginosa PAO1), the MIC came out at 32 µg/mL (≈ 107 µM). For the same molecule, in the data set on P. aeruginosa PAO1 (Supplementary Table 1, read-out: MIC (µg/ml) P. aeruginosa PAO1), the MIC is 32 µg/mL (≈ 107 µM). Moreover, the MIC with S. aureus ATCC 25923 (setting [12]) amounted to 4 µg/mL (≈ 13.4 µM). Also, the MIC with S. aureus ATCC 25923 (setting [13]) turned out to be 4 µg/mL (≈ 13.4 µM). For the same molecule, in [3], it took 21 µM to reach half-maximal inhibition (IC50), the “Inhibition of Bc FtsZ At 100 μM” value was “Yes” and the “Inhibits B. cenocepacia FtsZ GTPase at 100µM?” value is on record as “Yes”. Besides, the MIC in the data set with P. aeruginosa worked out at 2 µg/mL. The “MIC in the presence of MC-207.110, FCF19” value with B. cenocepacia FCF19 [4] is recorded as “did not change”. In addition, in the data set on B. cenocepacia FCF22 [5], the “MIC in the presence of MC-207.110, FCF22” value is recorded as “did not change”. The “toxic concentration at 50% (TC50)” value in data set [6] was found to be 50 µM.
Take `O=C(O)c1ccc([N+](=O)[O-])cc1` [4-nitrobenzoic acid]: the “Vmax (Figure 3)” value in [7] came to 17.5 ± 1.4 s⁻¹.
`O=C1CSc2ccc3nsnc3c2N1` [compound 11626109, 7H-[1,2,5]thiadiazolo[3,4-f][1,4]benzothiazin-8(9H)-one] showed a melting point of 211 to 213 °C. For the same molecule, the MIC with B. cenocepacia J2315 (setting [8]) was found to be 512 µg/mL (≈ 2290 µM). For the same molecule, the MIC in the data set on B. cenocepacia J2315 (setting [9]) was determined as 512 µg/mL (≈ 2290 µM). In the data set with B. cenocepacia J2315, the “activity compared with C109, in words” value was “loss of activity”. Also, the MIC with E. coli ATCC 25922 (setting [10]) was more than 512 µg/mL. In addition, the MIC in the data set on E. coli ATCC 25922 (setting [11]) was more than 512 µg/mL. In addition, in the data set on S. aureus ATCC 25923 (setting [12]), the MIC is more than 512 µg/mL. The MIC in the data set with S. aureus ATCC 25923 (setting [13]) was more than 512 µg/mL. In data set [3], the “Inhibition of Bc FtsZ At 100 μM” value is recorded as “No” and the “Inhibits B. cenocepacia FtsZ GTPase at 100µM?” value was “No”. Besides, the “activity against B. cenocepacia growth” value in the data set with B. cenocepacia is given as “not active”.
